PMC9530963, “A cathelicidin antimicrobial peptide from Hydrophis cyanocinctus inhibits Zika virus infection by downregulating expression of a viral entry factor” (The Journal of Biological Chemistry, 2022)

What was measured:
ZIKV = experiment: Direct inactivation of ZIKV particles (virus pre-incubated with peptide); assay type: cell-based, ZIKV strain PRVABC59; details: ZIKV incubated with 2.5 μM peptide at 37 °C for 2 h, pelleted, added to Vero cells, 48 h; RNA, NS3, E protein, titer
Experimental: Figure 8 Hc-CATH directly inactivates ZIKV particles by disrupting viral membrane.A, schematic diagram of B–G (Hc-CATH-Vero-pre). B–G, direct inactivation of ZIKV by Hc-CATH. ZIKVs (MOI = 1) were incubated with Hc-CATH (2.5 μM), AC5 (2.5 μM), LL-37 (2.5 μM), or PBS (peptide solvent) at 37 °C for 2 h, and then the ZIKV–PBS mixture and ZIKV–peptide mixture were centrifugated at 100,000g for 70 min. The pellets were washed with PBS and centrifugated at 100,000g for 70 min again. The pellets were resuspended in PBS, added to Vero cells, and incubated for 2 h. Cells were washed with PBS and cultured in fresh DMEM containing 2% FBS. After culture at 37 °C for 48 h, the intracellular ZIKV RNA (B), NS3 protein (C and D), E protein level (E, the scale bar represents 50 μm), and extracellular ZIKV titer (F and G) were tested by qPCR, Western blot, immunofluorescence staining, and plaque-forming assay, respectively. H, binding of Hc-CATH to ZIKV. High-affinity binding plates were coated with 0.25 μM of Hc-CATH, BSA, AC5, or LL-37. Then, 1 × 10^6 PFU of ZIKV was added and incubated. […] Absorbance at 450 nm was measured after reactions were stopped using 0.5 M sulfuric acid. […] After the residual RNase was inactivated, the undigested genomic RNA in the intact ZIKV particles was extracted and quantified by testing the genes of PrM, E, and Cap proteins, respectively. ∗∗p < 0.01 and ∗∗∗p < 0.001. […]

bacteria = test system: bacteria; design: method as in PMID 26013823; details: cited from earlier work
TYRO3 = TYRO3 level in Vero cells (Western blot); assay type: cell-based, Chlorocebus aethiops; details: 6, 12, and 24 h post Hc-CATH addition
Experimental: Figure 3 Hc-CATH downregulates AXL in Vero cell.A, schematic diagram of B and C. B, Vero cells were seeded in 24-well plates (5 × 10^4 cells/well) and cultured in DMEM containing 2% FBS. Hc-CATH (1.25, 2.5, and 5 μM), AC5 (2.5 μM), LL-37 (2.5 μM), or same volume of PBS (peptide solvent) was added to cells. After culture at 37 °C for 6, 12, and 24 h, the levels of ZIKV entry factors, including AXL, TYRO3, and TIM-1, were tested by Western blot, respectively. C, Vero cells were seeded in 8-well cover slip chambers (5 × 10^4 cells/well) and cultured in DMEM containing 2% FBS. Hc-CATH (1.25, 2.5, and 5 μM), AC5 (2.5 μM), LL-37 (2.5 μM), or same volume of PBS (peptide solvent) was added to cells. After culture at 37 °C for 24 h, the level of AXL was tested by immunofluorescence staining. The scale bar represents 50 μm. D, schematic diagram of E. E, Vero cells were seeded in 24-well plates (5 × 10^4 cells/well) and cultured in DMEM containing 2% FBS. Hc-CATH (1.25, 2.5, and 5 μM), AC5 (2.5 μM), LL-37 (2.5 μM), or same volume of PBS (peptide solvent) was added to cells and incubated at 37 °C for 2 h. […] Ratio of AXL to β-actin was analyzed by ImageJ.
Vero cells were incubated with Hc-CATH (1.25, 2.5, and 5 μM), AC5 (2.5 μM), LL-37 (2.5 μM), or PBS (solvent of peptide). […] The levels of ZIKV entry factors, including AXL, TYRO3, and TIM-1, were detected by WB analysis. […]

KFFKRLLKSVRRAVKKFRKKPRLIGLSTLL [Hc-CATH, cathelicidin antimicrobial peptide identified from the sea snake Hydrophis cyanocinctus]
direct inactivation of ZIKV particles (ZIKV): directly inactivated viral particles | antibacterial spectrum (bacteria): broad antibacterial spectrum | level of TYRO3 in Vero cells (TYRO3): did not obviously influence
